Patent publication US8420634B2, “Amidine, thiourea and guanidine derivatives of 2-aminobenzothiazoles and aminobenzothiazines for their use as pharmacological agents for the treatment of neurodegenerative pathologies” (Rottapharm S.p.A., priority 2007, dated 2013)
Where a name gives a salt, the structure may show the parent alone.

System: cortical slices
Experiment: in vitro ischemia (oxygen-glucose deprivation/re-oxygenation): LDH activity released during re-oxygenation
Assay type: cell-based
Conditions: rat cortical slices, concentrations of 0.1-1 μM
Procedure: (§1) Said in vitro ischemia model is generally accepted as a comprehensive model for the study and selection of products with neuroprotective activity.
Male Sprague-Dawley rats (350-450 g; Charles River Italia, Calco, Italy) have been sacrificed following anaesthesia (i.p. injection of 30 mg/kg ketamine hydrochloride and 8 mg/kg xylazine hydrochloride). The brain is rapidly removed and placed in aCSF (artificial Cerebro Spinal Fluid, composition expressed in mM: 120 NaCl, 2.5 KCl, 1.3 MgCl2, 1.0 NaH2PO4, 1.5 CaCl2, 26 NaHCO3, 11 glucose, saturated with 95% O2 −5% CO2, with a final pH of 7.4, osmolarity 285-290 mOsmol). The cortex is removed and sectioned into slices 400 μm thick. […]
(§2) Neuronal damage is assessed quantitatively by measuring the glutamate and lactate dehydrogenase (LDH) released into the aCSF during the period of re-oxygenation. In particular, glutamate is measured fluorimetrically (excitation at 366 nm; emission at 450 nm) using the conversion of NAD^+ to NADH catalysed by glutamate dehydrogenase (Eilers et al., 1999) while LDH activity is determined spectrophotometrically by measuring the reduction in absorbance at 340 nm via the oxidation of NADH to NAD^+ (Gay et al., 1968).
All experiments have been conducted using slices obtained from at least 4 different rats. […] Data for glutamate and LDH activity is expressed as nmol/mg tissue and U/mg tissue, respectively. […]

Compound | reduction in LDH activity
CCNC(=S)Nc1nc2ccc(OC(F)(F)F)cc2s1 [Example 9, 1-Ethyl-3-[6-(trifluoromethoxy)benzothiazol-2-yl]thiourea] | remarkable reduction (a reduction in glutamic acid release and/or LDH activity to a value comprised of between 10% and 50% of that of the control sample)

System: cortical slices
Experiment: in vitro ischemia (oxygen-glucose deprivation/re-oxygenation): glutamate released during re-oxygenation
Assay type: cell-based
Conditions: rat cortical slices, concentrations of 0.1-1 μM
Procedure: as §1
Male Sprague-Dawley rats (350-450 g; Charles River Italia, Calco, Italy) have been sacrificed following anaesthesia (i.p. injection of 30 mg/kg ketamine hydrochloride and 8 mg/kg xylazine hydrochloride). The brain is rapidly removed and placed in aCSF (artificial Cerebro Spinal Fluid, composition expressed in mM: 120 NaCl, 2.5 KCl, 1.3 MgCl2, 1.0 NaH2PO4, 1.5 CaCl2, 26 NaHCO3, 11 glucose, saturated with 95% O2 −5% CO2, with a final pH of 7.4, osmolarity 285-290 mOsmol). The cortex is removed and sectioned into slices 400 μm thick.
The slices are then maintained in oxygenated aCSF supplemented with 400 μM ascorbic acid for 1 hour at room temperature.
Cortical slices total weight 33.6±2.6 mg, n=10) are incubated at 37° C., in 2 ml aCSF under a flow of 95% O2/5% CO2 for a period of 30 minutes. Oxygen-glucose deprivation is then implemented for 30 minutes by incubating in aCSF where the glucose has been substituted by sucrose and the oxygen mix air flow replaced with 95% N2/5% CO2. After the period of oxygen-glucose deprivation, the slices are placed in oxygenated aCSF for 90 minutes (re-oxygenation). In the treated samples, the compound of formula I is dissolved in aCSF at the concentrations described.
as §2
All experiments have been conducted using slices obtained from at least 4 different rats. Data is reported as the S.E.M. and “n” is defined as the sample number. Data for glutamate and LDH activity is expressed as nmol/mg tissue and U/mg tissue, respectively. One unit (U) of LDH activity is defined as the correspondent yielding one micromole of lactate in one minute. Statistical analyses have been conducted using ANOVA followed by post-hoc Dunnett tests (GraphPad INSTAT v3.00, GraphPad Software, San Diego, Calif., USA).

Compound | reduction in glutamate release
CN/C(C)=N/C1=Nc2ccccc2SC1 [Example 21, N′-(2H-1,4-benzothiazin-3-yl)-N-methylacetamidine] | remarkable reduction (a reduction in glutamic acid release and/or LDH activity to a value comprised of between 10% and 50% of that of the control sample)
CN/C(C)=N/C1=Nc2ccccc2CS1 [Example 17, N′-(4H-3,1-benzothiazin-2-yl)-N-methylacetamidine] | remarkable reduction (a reduction in glutamic acid release and/or LDH activity to a value comprised of between 10% and 50% of that of the control sample)
CCCCNC(=S)Nc1nc2ccc(OC(F)(F)F)cc2s1 [Example 12, 1-Butyl-3-[6-(trifluoromethoxy)benzothiazol-2-yl]thiourea] | remarkable reduction (a reduction in glutamic acid release and/or LDH activity to a value comprised of between 10% and 50% of that of the control sample)
CCN(CC)/C(C)=N/C1=Nc2ccccc2CS1 [Example 19, N′-(4H-3,1-benzothiazin-2-yl)-N,N-diethylacetamidine] | remarkable reduction (a reduction in glutamic acid release and/or LDH activity to a value comprised of between 10% and 50% of that of the control sample)
C/C(=N\C1=Nc2ccccc2CS1)N(C)C [Example 18, N′-(4H-3,1-benzothiazin-2-yl)-N,N-dimethylacetamidine] | remarkable reduction (a reduction in glutamic acid release and/or LDH activity to a value comprised of between 10% and 50% of that of the control sample)
C/C(=N/c1nc2ccc(OC(F)(F)F)cc2s1)N(C)C [Example 5, N,N-dimethyl-N′-[6-(trifluoromethoxy)benzothiazol-2-yl]acetamidine] | remarkable reduction (a reduction in glutamic acid release and/or LDH activity to a value comprised of between 10% and 50% of that of the control sample)

Same assay, conditions: rat cortical slices, concentrations of 0.1-10 μM

Compound | reduction in glutamate release
CCCNC(=N)Nc1nc2ccc(OC(F)(F)F)cc2s1 [Example 16, 1-Propyl-3-[6-(trifluoromethoxy)benzothiazol-2-yl]guanidine] | remarkable reduction (a reduction in glutamic acid release and/or LDH activity to a value comprised of between 10% and 50% of that of the control sample)

System: not given
Experiment: not given
Conditions: not given

melting point | Compound
164 to 166 °C (dec.) | CN/C(C)=N/C1=Nc2ccccc2SC1 (as salt: oxalate) [Example 21, N′-(2H-1,4-benzothiazin-3-yl)-N-methylacetamidine]
180 to 182 °C | CCCNC(=S)NC1=Nc2ccc(OC(F)(F)F)cc2SC1 [Example 34, 1-Propyl-3-(7-trifluoromethoxy-2H-1,4-benzothiazin-3-yl)thiourea]
154 to 157 °C (dec.) | C/C(=N\C1=Nc2ccccc2CS1)N(C)C (as salt: oxalate) [Example 18, N′-(4H-3,1-benzothiazin-2-yl)-N,N-dimethylacetamidine]
180 to 184 °C | CCCNC(=S)NC1=Nc2ccccc2CS1 [Example 30, 1-(4H-3,1-benzothiazin-2-yl)-3-propylthiourea]
191 to 196 °C | CCNC(=S)NC1=Nc2ccccc2CS1 [Example 29, 1-(4H-3,1-benzothiazin-2-yl)-3-ethylthiourea]
199 to 201 °C | CCNC(=S)NC1=Nc2ccc(OC(F)(F)F)cc2SC1 [Example 33, 1-Ethyl-3-[7-(trifluoromethoxy)-2H-1,4-benzothiazin-3-yl]thiourea]
110 to 113 °C (dec.) | CN/C(C)=N/C1=Nc2ccccc2CS1 (as salt: oxalate) [Example 17, N′-(4H-3,1-benzothiazin-2-yl)-N-methylacetamidine]
120 to 122 °C (dec.) | C/C(=N\C1=Nc2ccccc2SC1)N(C)C (as salt: oxalate) [Example 22, N′-(2H-1,4-benzothiazin-3-yl)-N,N-dimethylacetamidine]

Further lines, the molecule ahead of its results:

Compound | melting point
CCNC(=S)NC1=Nc2ccc(OC(F)(F)F)cc2CS1 [Example 31, 1-Ethyl-3-[6-(trifluoromethoxy)-4H-3,1-benzothiazin-2-yl]thiourea] | 169 to 172 °C
FC(F)(F)Oc1ccc2nc(NC(=S)Nc3ccccc3)sc2c1 [Example 13, 1-Phenyl-3-[6-(trifluoromethoxy)benzothiazol-2-yl]thiourea] | 234 °C
CCCNC(=S)Nc1nc2ccc(OC(F)(F)F)cc2s1 [Example 10, 1-Propyl-3-[6-(trifluoromethoxy)benzothiazol-2-yl]thiourea] | 226 to 228 °C
Fc1ccc(NC(=S)Nc2nc3ccc(OC(F)(F)F)cc3s2)cc1 [Example 14, 1-(4-Fluorophenyl)3-[6-(trifluoromethoxy)benzothiazol-2-yl]thiourea] | 207 °C
CCCCNC(=S)Nc1nc2ccc(OC(F)(F)F)cc2s1 [Example 12, 1-Butyl-3-[6-(trifluoromethoxy)benzothiazol-2-yl]thiourea] | 211 °C
CCCNC(=S)NC1=Nc2ccc(OC(F)(F)F)cc2CS1 [Example 32, 1-Propyl-3-[6-(trifluoromethoxy)-4H-3,1-benzothiazin-2-yl]thiourea] | 148 to 151 °C
CCNC(=S)Nc1nc2ccc(OC(F)(F)F)cc2s1 [Example 9, 1-Ethyl-3-[6-(trifluoromethoxy)benzothiazol-2-yl]thiourea] | 199 to 200 °C
CCNC(=N)Nc1nc2ccc(OC(F)(F)F)cc2s1 [Example 15, 1-Ethyl-3-[6-(trifluoromethoxy)benzothiazol-2-yl]guanidine] | 127 to 129 °C
CCCNC(=N)Nc1nc2ccc(OC(F)(F)F)cc2s1 [Example 16, 1-Propyl-3-[6-(trifluoromethoxy)benzothiazol-2-yl]guanidine] | 110 to 111 °C
CC(C)NC(=S)Nc1nc2ccc(OC(F)(F)F)cc2s1 [Example 11, 1-Isopropyl-3-[6-(trifluoromethoxy)benzothiazol-2-yl]thiourea] | 242 °C
